Columns and labels:
serotonin transporter = target: T1, serotonin transporter (Rattus norvegicus, UniProt P31652); experiment: Serotonin transporter binding assay with 3H-paroxetine on frontal cortical membranes; set-up: species or system male Sprague-Dawley rats
T1 construct: frontal cortical membranes prepared from male Sprague-Dawley rats; from tissue; host or cells: frontal cortex of male Sprague-Dawley rats (membranes)
Procedure: A protocol similar to that used by Cheetham et al., Neuropharmacol., 32:737 (1993) was used to determine the affinity of compounds for the serotonin transporter. Briefly, frontal cortical membranes prepared from male Sprague-Dawley rats were incubated with ^3H-paroxetine (0.1 nM) for 60 min at 25°C. All tubes also contained either vehicle, test compound (one to eight concentrations), or a saturating concentration of fluoxetine (10 µM) to define […]. All reactions were terminated by the addition of ice cold Tris buffer followed by rapid filtration using a Tom Tech filtration device to separate bound from free ^3H-paroxetine. Bound radioactivity was quantitated using a Wallac 1205 Beta Plate® counter. Nonlinear regression analysis was used to determine IC50 values which were converted to Ki values using the method set forth in Cheng and Prusoff, Biochem. Pharmacol., 22:3099 (1973) ([…].

human 5-HT1A receptor = target: T2, human 5-HT1A receptor (Homo sapiens, UniProt P08908); experiment: 5-HT1A receptor binding assay with [3H]8-OH-DPAT on CHO cell membranes; conditions: @ 1000 nM, 5-HT1A.CHO cell membranes
T2 construct: expressed in transfected cells
T2 sequence (P08908 1-422): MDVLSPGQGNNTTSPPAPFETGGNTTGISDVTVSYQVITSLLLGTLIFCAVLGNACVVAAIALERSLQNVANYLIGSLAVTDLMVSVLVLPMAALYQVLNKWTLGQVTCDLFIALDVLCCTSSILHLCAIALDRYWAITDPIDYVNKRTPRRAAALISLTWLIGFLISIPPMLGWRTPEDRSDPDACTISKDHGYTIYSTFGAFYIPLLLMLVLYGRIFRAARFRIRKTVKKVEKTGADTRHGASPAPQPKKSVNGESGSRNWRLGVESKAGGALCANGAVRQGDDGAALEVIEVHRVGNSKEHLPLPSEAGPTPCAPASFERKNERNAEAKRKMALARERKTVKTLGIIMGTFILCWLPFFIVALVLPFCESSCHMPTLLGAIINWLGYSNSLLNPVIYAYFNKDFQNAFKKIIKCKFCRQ
Procedure: The PCR cloning of the human 5-HT1A receptor subtype from a human genomic library has been described previously by Chanda et al., Mol. Pharmacol., 43:516 (1993). A stable Chinese hamster ovary cell line expressing the human 5-HT1A receptor subtype (5-HT1A.CHO cells) was employed throughout this study. Cells were maintained in DMEM supplemented with 10% fetal calf serum, non-essential amino acids and penicillin/ streptomycin.
Cells were grown to 95-100% confluency as a monolayer before membranes were harvested for binding studies. Cells were gently scraped from the culture plates, transferred to centrifuge tubes, and washed twice by centrifugation (2000 rpm for 10 min., 4°C) in buffer (50 mM Tris; pH 7.5). The resulting pellets were aliquoted and maintained at -80•C. On the day of assay, the cells were thawed on ice, and resuspended in buffer. Studies were conducted using [^3H]8-OH-DPAT as the radioligand. The binding assay was performed in 96 well microtiter plates in a final total volume of 250 µL of buffer. Comparison experiments werc performed by using 7 concentrations of unlabelled drug and a final ligand concentration of 1.5 nM. Nonspecific binding was determined in the presence of 10 µM 5HT. Saturation analysis was conducted by using [^3H]8-OH-DPAT at concentrations ranging from 0.3-30 nM. […]

T1 sequence (P31652 whole entry): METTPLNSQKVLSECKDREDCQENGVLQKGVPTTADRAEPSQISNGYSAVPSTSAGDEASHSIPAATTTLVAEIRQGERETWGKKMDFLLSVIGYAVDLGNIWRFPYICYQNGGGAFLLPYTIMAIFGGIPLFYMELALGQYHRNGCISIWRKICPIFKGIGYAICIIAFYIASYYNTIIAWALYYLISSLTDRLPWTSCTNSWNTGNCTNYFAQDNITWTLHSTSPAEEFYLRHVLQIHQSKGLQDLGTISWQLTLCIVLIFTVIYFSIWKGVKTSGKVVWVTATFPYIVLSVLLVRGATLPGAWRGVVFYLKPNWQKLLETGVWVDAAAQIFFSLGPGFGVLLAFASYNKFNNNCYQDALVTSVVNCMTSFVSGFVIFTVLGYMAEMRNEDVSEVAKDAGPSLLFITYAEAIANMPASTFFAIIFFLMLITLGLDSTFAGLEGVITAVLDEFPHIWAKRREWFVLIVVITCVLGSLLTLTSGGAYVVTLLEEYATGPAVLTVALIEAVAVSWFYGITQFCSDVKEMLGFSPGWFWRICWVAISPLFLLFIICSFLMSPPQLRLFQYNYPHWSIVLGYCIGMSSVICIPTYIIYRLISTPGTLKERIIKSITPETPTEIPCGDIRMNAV

| SMILES | Ki (serotonin transporter) [nM] | 5-HT1A (Ki, nM) (human 5-HT1A receptor) [% @ 1000 nM] | ST (Ki, nM,) (serotonin transporter; @ 100 nM, 3H-paroxetine, rat frontal cortical membranes) [% @ 100 nM] |
| --- | --- | --- | --- |
| COc1ccsc1C1=CCN([C@H]2CC[C@@H](c3c[nH]c4ccc(F)cc43)CC2)CC1 [Example 1, 5-Fluoro-3-{(1,4-cis)-4-[4-(3-methoxy-thiophen-2-yl)-3,6-dihydro-2H-pyridin-1-yl]-cyclohexyl}-1H-indole] | 2.5 | 48 |  |
| COc1ccsc1C1=CCN([C@H]2CC[C@H](c3c[nH]c4ccc(F)cc43)CC2)CC1 [Example 2, 5-Fluoro-3-{(1,4-trans)-4-[4-(3-methoxy-thiophen-2-yl)-3,6-dihydro-2H-pyridin-1-yl]-cyclohexyl}-1H-indole] |  |  | 18 |
